The subject of test [1] is root-knot nematode (Meloidogyne incognita). Particulars: known from prior reports; cited from earlier work.
Test [2] concerns H. glycines second-stage nematodes (J2), races 2 (HG type 1.2.5.7) and 5 (HG type 2.5.7). Nature of the test: whole plant or invertebrate. Particulars: for nematocidal activity against races 2 and 5: 24 hours incubation, 0.5 and 1.0 mg/ml, overall statement; for mortality at 500 µg/mL / mortality at 1000 µg/mL: Heterodera glycines, 24 h, read-out: J2 mortality. Here is the method: Determination of the nematocidal activity of phenolic compounds was conducted as previously described. Briefly, approximately 400 freshly hatched J2s in 900 μl of water were added to each well of a 24-well Microtest™ tissue culture plate, and 100 μl of the compound test solution was added at concentrations of 5 mg/ml and 10 mg/ml. Therefore, the final concentration of each compound in each suspension is 0.5 mg/ml and 1.0 mg/ml. Control samples received 100 μl of water. Three replicates per concentration were used. The plate was covered with the original solid lid and wrapped with Parafilm®, and samples were kept at 27° C. in an incubator. After 24 hours of incubation, dead and alive J2 nematodes were counted using a stereo microscope Leica M165 FC (×40) to evaluate mortality rates. J2 mortality can be estimated according to the mean percentage of dead J2 in the total number of J2 (alive and dead). Nematodes are considered dead when no movement was observed during 3 seconds of observation. The compounds 3,4-dihydroxybenzoic acid and 4-hydroxybenzaldehyde are commercially available at Sigma-Aldrich, USA.

Test [3] has as its system nematode. The note with it: general statement; cited from earlier work.

As to `O=C(O)c1ccc(O)c(O)c1` [3,4-dihydroxybenzoic acid], in test [1], the “nematocidal activity against root-knot nematode” value was “showing nematocidal activity”. Further, in test [2], the “nematocidal activity against races 2 and 5” value was “demonstrated nematocidal activity”; the mortality (usually the share of the test organisms that died) at 500 µg/mL was 19%; the mortality at 1000 µg/mL worked out at 30%.
Turning to `O=Cc1ccc(O)cc1` [4-hydroxybenzaldehyde], in test [2], the “nematocidal activity against races 2 and 5” value is given as “demonstrated nematocidal activity”; the mortality at 500 µg/mL was 68%; the mortality at 1000 µg/mL stood at 96%.
Take `O=C(O)c1ccccc1O` [SA, salicylic acid]: the direct nematocidal activity entry in test [3] is given as “no direct nematocidal activity”.

The values are drawn from US20200345006A1, “METHODS OF REDUCING NEMATODE INFECTION IN PLANTS” (The University of North Carolina at Charlotte, priority 2019, published 2020).
